ChEMBL document CHEMBL1201862, “PubChem BioAssay data set” (2004)
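Five compound concentrations were applied to cells in 96-well plates for 48 hours; endpoints were derived by simple linear interpolation of the resulting dose-response curve. The concentration for 50% growth inhibition is given as GI50.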 Activity calls are given as the source filed them. No stated cut-off is given here; in the data, active = GI50 up to about 1.1 µM and inactive = higher.

Key:
Test in all cases: growth of human tumour cells (NCI), 48 h
OVCAR-5 = system: OVCAR-5
SR = system: SR
OVCAR-8 = system: OVCAR-8
HT-29 = system: HT-29
A498 = system: A498
SK-MEL-2 = system: SK-MEL-2
M14 = system: M14
SNB-19 = system: SNB-19
IGROV-1 = system: IGROV-1
KM12 = system: KM12
HL-60 = system: HL-60
A549 = system: A549
OVCAR-3 = system: OVCAR-3
OVCAR-4 = system: OVCAR-4
HCT-116 = system: HCT-116
SK-OV-3 = system: SK-OV-3
NCI-H460 = system: NCI-H460
PC-3 = system: PC-3
NCI/ADR-RES = system: NCI/ADR-RES

| Structure (SMILES) | GI50 (OVCAR-5) | GI50 (SR) | GI50 (OVCAR-8) | GI50 (HT-29) | GI50 (A498) | GI50 (SK-MEL-2) | GI50 (M14) | GI50 (SNB-19) | GI50 (IGROV-1) | GI50 (KM12) | GI50 (HL-60) | GI50 (A549) | GI50 (OVCAR-3) | GI50 (OVCAR-4) | GI50 (HCT-116) | GI50 (SK-OV-3) | GI50 (NCI-H460) | GI50 (PC-3) | GI50 (NCI/ADR-RES) |
| --- | --- | --- | --- | --- | --- | --- | --- | --- | --- | --- | --- | --- | --- | --- | --- | --- | --- | --- | --- |
| Cc1nc(-n2nc(-c3ccccc3)cc2-c2ccccc2)sc1C(=O)CC(=O)C(=O)Nc1ccc(O)cc1 | > 100 µM (inactive) | > 100 µM (inactive) | > 100 µM (inactive) | > 100 µM (inactive) | > 100 µM (inactive) | > 100 µM (inactive) | > 100 µM (inactive) | > 100 µM (inactive) | > 100 µM (inactive) | > 100 µM (inactive) | > 100 µM (inactive) | > 100 µM (inactive) | > 100 µM (inactive) | > 100 µM (inactive) | > 100 µM (inactive) | > 100 µM (inactive) | – | – | – |
| Cc1cccc(C)c1NC(=O)C(=O)C(C#N)c1ccccc1Cl (centres undefined) | > 100 µM (inactive) | > 100 µM (inactive) | > 100 µM (inactive) | > 100 µM (inactive) | > 100 µM (inactive) | > 100 µM (inactive) | > 100 µM (inactive) | > 100 µM (inactive) | > 100 µM (inactive) | > 100 µM (inactive) | 80.2 µM (inactive) | > 100 µM (inactive) | > 100 µM (inactive) | > 100 µM (inactive) | > 100 µM (inactive) | > 100 µM (inactive) | > 100 µM (inactive) | – | – |
| N[C@H](COCc1ccccc1)c1ccccc1 | 24.9 µM (inactive) | 23.3 µM (inactive) | 35.6 µM (inactive) | 28.8 µM (inactive) | 32.4 µM (inactive) | 21.1 µM (inactive) | 23.1 µM (inactive) | 30.6 µM (inactive) | 39 µM (inactive) | 27.4 µM (inactive) | 11.9 µM (inactive) | 33.5 µM (inactive) | 26.7 µM (inactive) | 20.7 µM (inactive) | 22.5 µM (inactive) | 29.6 µM (inactive) | 22.8 µM (inactive) | – | – |
| CCc1cccc(C(C)C)c1NC(=O)C(=O)C(Cc1nc2ccccc2nc1O)C(=O)OC (centres undefined) | > 100 µM (inactive) | 38.5 µM (inactive) | > 100 µM (inactive) | 95.3 µM (inactive) | > 100 µM (inactive) | > 100 µM (inactive) | > 100 µM (inactive) | > 100 µM (inactive) | > 100 µM (inactive) | > 100 µM (inactive) | > 100 µM (inactive) | > 100 µM (inactive) | > 100 µM (inactive) | > 100 µM (inactive) | 40.7 µM (inactive) | > 100 µM (inactive) | > 100 µM (inactive) | – | – |
| O=C1c2ccccc2C(=O)c2c(O)c(NCCNCCO)cc(O)c21 | 10.2 µM (inactive) | 2.2 µM (inactive) | 3.01 µM (inactive) | 3.23 µM (inactive) | 7.26 µM (inactive) | 5.07 µM (inactive) | 4.42 µM (inactive) | 1.75 µM (inactive) | 1.91 µM (inactive) | 3.72 µM (inactive) | 4.69 µM (inactive) | 3.55 µM (inactive) | 4.39 µM (inactive) | 2.99 µM (inactive) | 2.3 µM (inactive) | – | 3.34 µM (inactive) | – | – |
| COc1cc2ccnc3c2c(c1OC)-c1coc(SC)c1-3 | > 100 µM (inactive) | 40.2 µM (inactive) | 35.2 µM (inactive) | 94.8 µM (inactive) | 19.5 µM (inactive) | > 100 µM (inactive) | > 100 µM (inactive) | > 100 µM (inactive) | > 100 µM (inactive) | > 100 µM (inactive) | 9.18 µM (inactive) | > 100 µM (inactive) | – | 48.6 µM (inactive) | 52.8 µM (inactive) | > 100 µM (inactive) | 97.3 µM (inactive) | – | – |
| COc1ccc(C[C@H](N)C(=O)NC2C(CO)OC(n3cnc4c(N(C)C)ncnc43)C2O)cc1 (some centres undefined) | 5.31 µM (inactive) | 0.138 µM (active) | 0.182 µM (active) | 0.262 µM (active) | 1.04 µM (active) | 0.415 µM (active) | 0.378 µM (active) | – | 0.451 µM (active) | 0.262 µM (active) | 0.141 µM (active) | 0.492 µM (active) | 0.273 µM (active) | 0.389 µM (active) | 0.115 µM (active) | 0.395 µM (active) | 0.255 µM (active) | – | – |
| CNCc1cc(OC)ccc1-c1ccc(OC)c(OC)c1OC | > 100 µM (inactive) | > 100 µM (inactive) | > 100 µM (inactive) | 82.6 µM (inactive) | > 100 µM (inactive) | > 100 µM (inactive) | > 100 µM (inactive) | > 100 µM (inactive) | > 100 µM (inactive) | > 85.9 µM (inactive) | 48.1 µM (inactive) | > 100 µM (inactive) | > 70 µM (inactive) | > 80.9 µM (inactive) | > 94.6 µM (inactive) | > 100 µM (inactive) | > 92 µM (inactive) | – | – |
| COc1ccc2[nH]c3c(C)c4c(c(C)c3c2c1)CN(C)CC4 | 23.7 µM (inactive) | 23.4 µM (inactive) | 11.9 µM (inactive) | 6.47 µM (inactive) | 17.9 µM (inactive) | 17.2 µM (inactive) | 16.3 µM (inactive) | 17.3 µM (inactive) | 16.6 µM (inactive) | 13.9 µM (inactive) | 2.09 µM (inactive) | 17.7 µM (inactive) | 16 µM (inactive) | 19 µM (inactive) | 3.17 µM (inactive) | 16.3 µM (inactive) | 11.6 µM (inactive) | – | – |
| CCOC(=O)C1CC/C(=C(/C#N)C(=O)OC)N1 (centres undefined) | – | > 100 µM (inactive) | > 100 µM (inactive) | – | > 100 µM (inactive) | > 100 µM (inactive) | > 100 µM (inactive) | > 100 µM (inactive) | > 100 µM (inactive) | > 100 µM (inactive) | > 100 µM (inactive) | > 100 µM (inactive) | > 100 µM (inactive) | > 100 µM (inactive) | > 100 µM (inactive) | 57.7 µM (inactive) | > 100 µM (inactive) | – | – |
| COC(=O)C(=O)C(C(=O)C(=O)Nc1nnc(S)[nH]1)c1nc2ccc([N+](=O)[O-])cc2nc1O (centres undefined) | > 100 µM (inactive) | – | > 100 µM (inactive) | > 100 µM (inactive) | > 100 µM (inactive) | > 100 µM (inactive) | > 100 µM (inactive) | 44.7 µM (inactive) | 91.4 µM (inactive) | > 100 µM (inactive) | > 100 µM (inactive) | > 100 µM (inactive) | > 100 µM (inactive) | > 100 µM (inactive) | > 100 µM (inactive) | > 100 µM (inactive) | > 100 µM (inactive) | > 100 µM (inactive) | > 100 µM (inactive) |
| Clc1ccc2c(Cl)ncnc2c1 | > 100 µM (inactive) | > 100 µM (inactive) | > 100 µM (inactive) | > 100 µM (inactive) | > 100 µM (inactive) | > 100 µM (inactive) | > 100 µM (inactive) | > 100 µM (inactive) | > 100 µM (inactive) | > 100 µM (inactive) | > 100 µM (inactive) | > 100 µM (inactive) | > 100 µM (inactive) | > 100 µM (inactive) | > 100 µM (inactive) | > 100 µM (inactive) | > 100 µM (inactive) | – | – |
